The values below come from publication PMC5587642, “A Novel Benzocoumarin-Stilbene Hybrid as a DNA ligase I inhibitor with in vitro and in vivo anti-tumor activity in breast cancer models” (Scientific Reports, 2017).

Data set [1] in a line: In-vivo pharmacokinetic study. The note with it: rat. Further details: species or system Sprague Dawley (SD) rats. The method, then: Male Sprague Dawley (SD) rats weighing 200–220 g were obtained from the Laboratory of Animal Division of CSIR-CDRI (Lucknow, India). Animals were kept in well ventilated cages in hygienic conditions at room temperature (24 ± 2 °C), 40–60% relative humidity and 12 h light-dark cycle. The animals were acclimatized for a minimum period of 3 days prior to the experiments. Pharmacokinetic study was conducted according to protocol approved by the CSIR-CDRI Institutional Animal Ethic Committee (IAEC approval no. IAEC/2012/91). Compound 19 was dissolved in DMSO:Poly Ethylene Glycol-400: 0.9%w/v saline in the ratio of 1:1:2 and was intravenously administered at the dose of 5 mg/kg to each rat (n = 6). The rats were kept on fasting overnight with water alone for oral pharmacokinetic studies. Compound 19 was dissolved in DMSO:Poly Ethylene Glycol-400: 0.5% w/v Sodium carboxymethyl cellulose in TDW in the ratio of 3:1:4 and was orally administered at the dose of 50 mg/kg to each rat (n = 6). Blood samples were collected in microcentrifuge tubes for each time point at 0.083, 0.167, 0.333, 0.5, 0.75, 1.0, 2.0, 4.0, 6.0, 8.0, 10.0, 12.0, 24.0, 48.0 and 72 h post dosing. The blood samples were collected after light ether anesthesia from the retro-orbital plexus of rats using heparin as anticoagulant. Plasma was separated after centrifugation at 5000 rpm for 10 min and all the samples were stored at −80 °C until analysis. Rat plasma samples were processed using liquid-liquid extraction. 100 µL aliquot of plasma mixed with 150 µL of acetonitrile and 100 µL of 5 mM NaHCO3 solution was added and vortexed to mix well. In each sample, 2.5 mL of tert-Butyl methyl ether (TBME) (extraction solvent) was added and vortexed for 10 min at 2500 rpm on vibramax (Heidolph, Schwabach, Germany) followed by centrifugation (Eppendorf, Hamburg, Germany) at 5,000 rpm for 5 min. An aliquot of 2.0 mL of supernatant organic layer was separated and evaporated on vacuum concentrator (Thermo scientific, Asheville, USA) to complete dryness. The residue was reconstituted with 100 µL of mobile phase and injected into the LC-MS/MS system for analysis. The plasma samples ([…]) were assayed along with calibration standards and QC samples and the levels of compound 19 was calculated using Analyst software. The pharmacokinetic profile and parameters were evaluated by non-compartmental model approach using Pheonix 6.3 WinNonlin (Pharsight corporation, USA) including t1/2, elimination half-life; Cmax, maximum plasma concentration; tmax, time to reach maximum plasma concentration; AUC0-t, area under concentration curve from zero to last time point.

In data set [2] the target is T1, hLigIV/XRCC4 (Homo sapiens, UniProt P49917).
T1 construct: made in house; host or cells: E. coli Rosetta2 (DE3) pLacI
Nature of the data set: In-vitro DNA ligation assay. In kind it is biochemical. The note with it: 5, 10 and 20 µM. The method, then: (§1) DNA ligation assay was performed as described previously. […] After the incubation, gel images were captured and analyzed by Image Quant LAS4010 software.

For data set [3], the target named is T2, hLigI (Homo sapiens, UniProt P18858).
T2 construct: made in house
Nature of the data set: In-vitro DNA ligation assay. In kind it is biochemical. As to the method: as §1

For data set [4], the target named is T3, hLigIIIβ (Homo sapiens, UniProt P49916).
T3 construct: made in house; host or cells: E. coli Rosetta2 (DE3) pLacI
Nature of the data set: In-vitro DNA ligation assay. The data set is classed as biochemical. The following applies: 5, 10 and 20 µM. As to the method: as §1

Data set [5] deals with T4 DNA ligase (Enterobacteria phage T4, UniProt P00970). Nature of the data set: In-vitro DNA ligation assay. In kind it is biochemical. The note with it: 5, 10 and 20 µM. As to the method:
as §1

Data set [6] relates to 4T1 mouse breast cancer induced syngeneic breast tumor. Nature of the data set: Syngeneic 4T1 orthotopic breast cancer model. In kind it is in vivo, BALB/c mice. The following applies: 50 and 100 mg/kg, oral gavage daily for 32 days. As to the method: Animal studies were conducted under the protocol approved by the CSIR-CDRI Institutional Animal Ethics Committee (IAEC approval no. IAEC/2015/03). The in-vivo efficacy studies were performed using BALB/c mice with 4T1 mouse breast cancer induced syngeneic breast tumor model. Mouse tumor model was generated as described by Pulaski et al.[38]. Three different groups of 6 mice each were created for the experiment. Mouse breast cancer cells (4T1) were grown in tissue culture flask upto 70% confluence. Cells were then trypsinized, washed with serum containing medium to quench trypsin activity and then washed and resuspended in PBS. Then cells were injected orthotopically (1 × 10^6 cells in 100 μl PBS) into the mammary fat pad on the right flank of each female BALB/c mouse. Within 2 weeks, palpable tumors were formed and tumor bearing mice were divided randomly into one control and two treatment groups of six mice each. The treatment schedule began on day 16 of the injection and continued for another thirty two days. Compounds were administered by oral gavage once daily at 50 and 100 mg/kg. Tumor volumes were measured every fourth day. The group of vehicle treated animals served as control. The tumor volume, body weight and any behavioral changes in mice were monitored and recorded for the entire duration of the experiment (32 days). Tumor volumes were calculated using the formula (a × b^2)/2, where a, b are two longest perpendicular diameters.

The nature of data set [7]: Stability in simulated gastric and intestinal fluids. The data set is classed as in vitro ADME. The following applies: 2 µg/mL, up to 180 min. The method, then: Simulated gastric fluid (SGF) and simulated intestinal fluid (SIF) were prepared according to USP specifications. The compound 19 was incubated in SGF (0.2 g NaCl, 0.32 g pepsin, 0.7 mL HCl and triple distilled water up to 100 mL, pH 1.2) or SIF (0.680 g […], 0.616 g NaOH, 1 g pancreatin and triple distilled water up to 100 mL, pH 6.8). From the stock solution of compound 19 (1 mg/mL), equivalent concentration of 2 μg/mL of compound 19 were added to 1 mL of preincubated reaction mixture of SGF and SIF, at 37 °C in a shaking water bath in triplicate. 100 μL aliquots of sample was collected at each time point at 0, 5, 15, 30 and 60 min for SGF and 0, 5, 15, 30, 60 90, 120 and 180 min for SIF according to the human gastrointestinal transit time, followed by quenching with acetonitrile, then vortexed and centrifuged at 12000 rpm for 5 min. The supernatant was collected and analyzed by HPLC. The graph was plotted between % drug remaining and incubation time for SGF and SIF.

[8] abbreviates: male, Sprague Dawley, plasma, iv, I.V route, 5 mg/kg.
Where [9] appears, read: male, Sprague Dawley, plasma, oral route, 50 mg/kg.

“Also recorded” adds a separate entry of the source.

T2 sequence (P18858 whole entry): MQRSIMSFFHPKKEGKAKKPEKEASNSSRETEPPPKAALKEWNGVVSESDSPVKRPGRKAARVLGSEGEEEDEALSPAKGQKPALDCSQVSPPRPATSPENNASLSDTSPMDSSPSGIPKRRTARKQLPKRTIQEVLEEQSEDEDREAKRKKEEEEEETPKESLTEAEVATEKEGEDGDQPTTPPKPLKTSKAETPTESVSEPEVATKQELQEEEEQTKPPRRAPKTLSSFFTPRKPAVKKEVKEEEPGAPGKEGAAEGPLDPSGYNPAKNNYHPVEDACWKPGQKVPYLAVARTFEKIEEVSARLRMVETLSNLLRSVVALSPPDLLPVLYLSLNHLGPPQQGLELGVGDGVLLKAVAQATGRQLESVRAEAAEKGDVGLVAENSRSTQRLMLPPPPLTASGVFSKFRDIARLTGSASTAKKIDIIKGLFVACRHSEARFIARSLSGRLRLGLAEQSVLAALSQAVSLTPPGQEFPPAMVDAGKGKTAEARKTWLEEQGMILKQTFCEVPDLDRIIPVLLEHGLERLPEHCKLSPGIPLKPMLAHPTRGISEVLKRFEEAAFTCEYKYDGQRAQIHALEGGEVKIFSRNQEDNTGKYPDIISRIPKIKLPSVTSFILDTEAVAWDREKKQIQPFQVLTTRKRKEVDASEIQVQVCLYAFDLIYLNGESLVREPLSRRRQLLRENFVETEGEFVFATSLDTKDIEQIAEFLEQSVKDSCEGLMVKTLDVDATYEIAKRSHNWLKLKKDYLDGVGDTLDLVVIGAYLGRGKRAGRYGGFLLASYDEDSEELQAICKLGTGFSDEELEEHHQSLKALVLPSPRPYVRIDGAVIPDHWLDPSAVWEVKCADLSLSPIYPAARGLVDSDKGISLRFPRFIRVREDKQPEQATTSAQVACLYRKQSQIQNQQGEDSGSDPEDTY
T3 sequence (P49916 43-949 isoform P49916-2 limits assumed): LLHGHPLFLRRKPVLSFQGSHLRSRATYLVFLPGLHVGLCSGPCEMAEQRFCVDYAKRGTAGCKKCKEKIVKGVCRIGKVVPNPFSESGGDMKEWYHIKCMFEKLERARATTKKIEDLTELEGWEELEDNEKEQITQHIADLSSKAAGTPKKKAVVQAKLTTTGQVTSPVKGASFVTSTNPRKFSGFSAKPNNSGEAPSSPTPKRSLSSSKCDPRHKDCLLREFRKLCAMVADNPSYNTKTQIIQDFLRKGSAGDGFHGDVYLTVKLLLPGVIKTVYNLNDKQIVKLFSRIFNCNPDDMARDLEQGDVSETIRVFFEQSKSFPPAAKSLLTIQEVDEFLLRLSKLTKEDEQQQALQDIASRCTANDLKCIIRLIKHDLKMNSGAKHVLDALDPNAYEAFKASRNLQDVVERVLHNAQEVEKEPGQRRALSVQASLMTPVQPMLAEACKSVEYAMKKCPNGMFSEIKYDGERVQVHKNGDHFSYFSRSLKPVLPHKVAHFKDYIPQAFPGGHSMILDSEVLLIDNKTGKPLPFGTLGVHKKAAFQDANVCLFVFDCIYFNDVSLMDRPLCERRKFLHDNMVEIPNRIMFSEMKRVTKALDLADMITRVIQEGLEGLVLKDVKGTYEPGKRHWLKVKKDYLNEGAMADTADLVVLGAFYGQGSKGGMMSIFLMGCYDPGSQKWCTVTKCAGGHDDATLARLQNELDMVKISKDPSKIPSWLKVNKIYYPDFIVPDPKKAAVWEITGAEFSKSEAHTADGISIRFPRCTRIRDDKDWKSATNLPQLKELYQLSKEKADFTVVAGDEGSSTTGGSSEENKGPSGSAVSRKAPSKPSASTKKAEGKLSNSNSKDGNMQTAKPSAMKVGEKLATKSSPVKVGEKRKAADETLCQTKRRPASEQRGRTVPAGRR
T1 sequence (P49917 whole entry): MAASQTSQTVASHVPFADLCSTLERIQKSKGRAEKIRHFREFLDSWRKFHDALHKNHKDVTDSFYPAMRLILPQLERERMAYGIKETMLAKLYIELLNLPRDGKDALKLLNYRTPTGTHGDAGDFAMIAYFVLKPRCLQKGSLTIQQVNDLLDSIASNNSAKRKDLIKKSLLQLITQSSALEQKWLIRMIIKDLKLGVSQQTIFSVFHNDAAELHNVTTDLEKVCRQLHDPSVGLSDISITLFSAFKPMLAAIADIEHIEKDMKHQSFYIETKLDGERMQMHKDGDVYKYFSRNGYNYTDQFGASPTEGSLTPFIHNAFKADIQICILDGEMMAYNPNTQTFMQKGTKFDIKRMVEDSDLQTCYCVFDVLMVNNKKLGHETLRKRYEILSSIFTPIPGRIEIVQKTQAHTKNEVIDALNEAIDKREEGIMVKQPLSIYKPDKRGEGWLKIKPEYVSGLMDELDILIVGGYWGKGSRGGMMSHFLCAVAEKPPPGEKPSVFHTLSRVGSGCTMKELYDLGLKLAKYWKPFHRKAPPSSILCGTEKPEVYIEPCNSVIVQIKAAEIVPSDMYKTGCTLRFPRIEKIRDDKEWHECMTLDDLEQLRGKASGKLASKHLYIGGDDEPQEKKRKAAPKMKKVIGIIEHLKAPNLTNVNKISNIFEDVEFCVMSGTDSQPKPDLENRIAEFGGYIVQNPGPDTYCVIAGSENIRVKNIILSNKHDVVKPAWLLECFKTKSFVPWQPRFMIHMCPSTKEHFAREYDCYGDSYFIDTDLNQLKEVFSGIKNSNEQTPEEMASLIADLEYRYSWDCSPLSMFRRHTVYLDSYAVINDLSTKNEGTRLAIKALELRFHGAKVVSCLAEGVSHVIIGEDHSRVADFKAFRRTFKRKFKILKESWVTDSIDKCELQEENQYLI
T1 sequence (Q13426 whole entry partner): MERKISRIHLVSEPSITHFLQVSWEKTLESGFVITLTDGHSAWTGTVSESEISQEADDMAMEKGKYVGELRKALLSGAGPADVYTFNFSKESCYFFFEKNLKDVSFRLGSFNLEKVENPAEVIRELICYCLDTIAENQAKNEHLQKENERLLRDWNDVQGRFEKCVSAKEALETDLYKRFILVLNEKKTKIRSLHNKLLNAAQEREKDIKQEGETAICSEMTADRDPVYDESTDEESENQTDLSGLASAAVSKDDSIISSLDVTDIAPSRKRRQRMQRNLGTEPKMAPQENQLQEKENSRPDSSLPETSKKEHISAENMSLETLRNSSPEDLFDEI
Chain of T4 DNA ligase (P00970 whole entry): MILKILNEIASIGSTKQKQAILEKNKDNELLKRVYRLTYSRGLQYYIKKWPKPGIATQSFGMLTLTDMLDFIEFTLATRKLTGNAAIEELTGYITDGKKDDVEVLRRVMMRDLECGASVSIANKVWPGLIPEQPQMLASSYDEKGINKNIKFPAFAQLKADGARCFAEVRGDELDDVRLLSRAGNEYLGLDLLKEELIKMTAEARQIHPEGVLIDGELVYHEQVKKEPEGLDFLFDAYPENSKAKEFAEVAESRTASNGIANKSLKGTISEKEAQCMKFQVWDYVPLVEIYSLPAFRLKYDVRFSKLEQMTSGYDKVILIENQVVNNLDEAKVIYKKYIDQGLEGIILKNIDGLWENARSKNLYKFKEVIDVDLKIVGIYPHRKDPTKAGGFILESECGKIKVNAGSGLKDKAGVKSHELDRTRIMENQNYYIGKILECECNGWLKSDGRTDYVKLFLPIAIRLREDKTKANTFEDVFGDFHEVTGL

Consider `COc1cc(/C=C/c2cc(=O)oc3c2ccc2ccccc23)cc(OC)c1` [Compound 19, (E)-4-(3,5-dimethoxystyryl)-2H-benzo[h]chromen-2-one], for which, in data set [1] (male, Sprague Dawley, iv, I.V route, 5 mg/kg, plasma concentration at 5 min), the Cmax was 325 ± 102 ng/mL. In data set [1] (setting [8]), the exposure AUC(0-t) came to 457 ± 131 ng·h/mL and the half-life was 19.2 ± 11.8 h. Also, the bioavailability in data set [1] (male, Sprague Dawley, plasma, oral 50 mg/kg versus I.V 5 mg/kg, read-out: Bioavailability (%F)) came to 7.85 ± 0.65%. Further, in data set [1] (setting [9]), the AUC(0-t) is 342 ± 18.6 ng·h/mL, the peak level (Cmax) was 13.4 ± 2.92 ng/mL, the time to peak (Tmax) stood at 0.5 h and the half-life is 22.8 ± 4.69 h. In addition, in data set [1] (after oral dosing, 50 mg/kg), the “Time up to which plasma concentrations are detectable” value was “up to 72 h”. Also, the “Inhibition of hLigIV/XRCC4 ligation activity” value in data set [2] is “unaffected”. For the same compound, the “Antiligase activity, compound versus parent molecules” value in data set [3] (20 µM) is “significantly better antiligase activity”. Further, the “Inhibition of hLigI ligation activity” value in data set [3] (5, 10 and 20 µM) is “specifically inhibits the activity of hLigI”. Moreover, in data set [4], the “Inhibition of hLigIIIβ ligation activity” value was “unaffected”. Moreover, the “Inhibition of T4 DNA ligase activity” value in data set [5] is given as “unaffected”. In addition, in data set [6], the Average body weight result is given as “no significant change in the average body weight”, the “Breast cancer metastasis to the lungs (4T1 nodules)” value is “marked decrease in breast cancer metastasis to the lungs” and the “Breast tumor growth in-vivo” value was “inhibited breast tumor growth in-vivo in a dose dependent manner; also recorded: arrested tumor progression but could not induce tumor regression”. Besides, in data set [7] (pH 1.2, 37 °C), the “Stability in SGF (simulated gastric fluid)” value is recorded as 83.19 ± 3.22%. Moreover, the “Stability in SIF (simulated intestinal fluid)” value in data set [7] (pH 6.8, 37 °C) was 96.45 ± 0.79%.
